Test results published in US20080114005A1, “Fibrate Compounds Having Ppar Agonist Activity” (Dr. Reddy's Laboratories Limited, priority 2004, published 2008).

Row | melting point | Structure (SMILES)
1 | 182 to 184 °C | CCCc1nn(C)c2c(=O)n(CCOc3ccc(SC(C)(C)C(=O)O)cc3)c(C)nc12 [Example 32, 2-{4-[2-(1,5-Dimethyl-7-oxo-3-propyl-1,7-dihydro-pyrazolo[4,3-d]pyrimidin-6-yl)-ethoxy]-phenylsulfanyl}-2-methyl-propionic acid]
2 | 120 to 122 °C | CCOC(=O)C(C)(C)Sc1ccc(OCCn2c(CC)nc3ccccc3c2=O)cc1 [Example 33, 2-{4-[2-(2-Ethyl-4-oxo-4H-quinazolin-3-yl)-ethoxy]-phenylsulfanyl}-2-methyl-propionic acid ethyl ester]
3 | 148 to 150 °C | CCc1nc2ccccc2c(=O)n1CCOc1ccc(SC(C)(C)C(=O)O)cc1 [Example 34, 2-{4-[2-(2-Ethyl-4-oxo-4H-quinazolin-3-yl)-ethoxy]-phenylsulfanyl}-2-methyl-propionic acid]
4 | 52 to 54 °C | CCCc1nn(C)c2c(=O)n(CCCOc3ccc(SC(C)(C)C(=O)OCC)cc3)c(C)nc12 [Example 35, 2-{4-[3-(1,5-Dimethyl-7-oxo-3-propyl-1,7-dihydro-pyrazolo[4,3-d]pyrimidin-6-yl)-propoxy]-phenylsulfanyl}-2-methyl-propionic acid ethyl ester]
5 | 52 to 54 °C | CCCc1nn(C)c2c(=O)n(CCCOc3ccc(SC(C)(C)C(=O)OCC)cc3)c(CC)nc12 [Example 39, 2-{4-[3-(5-Ethyl-1-methyl-7-oxo-3-propyl-1,7-dihydro-pyrazolo[4,3-d]pyrimidin-6-yl)-propoxy]-phenylsulfanyl}-2-methyl-propionic acid ethyl ester]
6 | 115 to 117 °C | CCCc1nn(C)c2c(=O)n(CCCOc3ccc(SC(C)(C)C(=O)O)cc3)c(CC)nc12 [Example 40, 2-{4-[3-(5-Ethyl-1-methyl-7-oxo-3-propyl-1,7-dihydro-pyrazolo[4,3-d]pyrimidin-6-yl)-propoxy]-phenylsulfanyl}-2-methyl-propionic acid]
7 | 105 to 107 °C | CCCc1nn(C)c2c(=O)n(CCNc3ccc(SC(C)(C)C(=O)OCC)cc3)c(CC)nc12 [Example 41, 2-{4-[2-(5-Ethyl-1-methyl-7-oxo-3-propyl-1,7-dihydro-pyrazolo[4,3-d]pyrimidin-6-yl)-ethylamino]-phenylsulfanyl}-2-methyl-propionic acid ethyl ester]

Continued, compound first:

Row | Structure (SMILES) | melting point
8 | Cc1nc2ccccc2c(=O)n1CCNc1ccc(SC(C)(C)C(=O)O)cc1 [Example 2, 2-Methyl-2-{4-[2-(2-methyl-4-oxo-4H-quinazolin-3-yl)-ethylamino]-phenylsulfanyl}-propionic acid] | 226 to 228 °C
9 | CCc1nc2ccccc2c(=O)n1CCNc1ccc(SC(C)(C)C(=O)O)cc1 [Example 4, 2-{4-[2-(2-Ethyl-4-oxo-4H-quinazolin-3-yl)-ethylamino]-phenylsulfanyl}-2-methyl-propionic acid] | 124 to 126 °C
10 | CCCc1nc2ccccc2c(=O)n1CCNc1ccc(SC(C)(C)C(=O)O)cc1 [Example 6, 2-Methyl-2-{4-[2-(4-oxo-2-propyl-4H-quinazolin-3-yl)-ethylamino]-phenylsulfanyl}-propionic acid] | 162 to 164 °C
11 | Cc1nc2ccccc2c(=O)n1CCCNc1ccc(SC(C)(C)C(=O)O)cc1 [Example 8, 2-Methyl-2-{4-[3-(2-methyl-4-oxo-4H-quinazolin-3-yl)-propylamino]-phenylsulfanyl}-propionic acid] | 162 to 164 °C
12 | CCc1nc2ccccc2c(=O)n1CCCNc1ccc(SC(C)(C)C(=O)O)cc1 [Example 10, 2-{4-[3-(2-Ethyl-4-oxo-4H-quinazolin-3-yl)-propylamino]-phenylsulfanyl}-2-methyl-propionic acid] | 60 to 62 °C
13 | Cc1nc2ccccc2c(=O)n1CCCCNc1ccc(SC(C)(C)C(=O)O)cc1 [Example 14, 2-Methyl-2-{4-[4-(2-methyl-4-oxo-4H-quinazolin-3-yl)-butylamino]-phenylsulfanyl}-propionic acid] | 100 to 102 °C
14 | CCc1nc2ccccc2c(=O)n1CCCCNc1ccc(SC(C)(C)C(=O)O)cc1 [Example 16, 2-{4-[4-(2-Ethyl-4-oxo-4H-quinazolin-3-yl)-butylamino]-phenylsulfanyl}-2-methyl-propionic acid] | 58 to 62 °C
15 | CCCc1nc2ccccc2c(=O)n1CCCCNc1ccc(SC(C)(C)C(=O)O)cc1 [Example 18, 2-Methyl-2-{4-[4-(4-oxo-2-propyl-4H-quinazolin-3-yl)-butylamino]-phenylsulfanyl}-propionic acid] | 100 to 104 °C
16 | CCCc1nn(C)c2c(=O)n(CCOc3ccc(NC(C)C(=O)OCC)cc3)c(CC)nc12 (stereo not drawn) [Example 19, 2-{4-[2-(5-Ethyl-1-methyl-7-oxo-3-propyl-1,7-dihydro-pyrazolo[4,3-d]pyrimidin-6-yl)-ethoxy]-phenylamino}-propionic acid ethyl ester] | 104 to 108 °C
17 | CCOC(=O)C(C)(C)Sc1ccc(OCCn2c(C)nc3ccccc3c2=O)cc1 [Example 21, 2-Methyl-2-{4-[2-(2-methyl-4-oxo-4H-quinazolin-3-yl)-ethoxy]-phenylsulfanyl}-propionic acid ethyl ester] | 114 to 116 °C
18 | Cc1nc2ccccc2c(=O)n1CCOc1ccc(SC(C)(C)C(=O)O)cc1 [Example 22, 2-Methyl-2-{4-[2-(2-methyl-4-oxo-4H-quinazolin-3-yl)-ethoxy]-phenylsulfanyl}-propionic acid] | 188 to 190 °C
19 | CCc1nc2ccccc2c(=O)n1CCCOc1ccc(SC(C)(C)C(=O)O)cc1 [Example 24, 2-{4-[3-(2-Ethyl-4-oxo-4H-quinazolin-3-yl)-propoxy]-phenylsulfanyl}-2-methyl-propionic acid] | 156 to 158 °C
20 | CCOC(=O)C(C)(C)Sc1ccc(OCCCn2c(C)nc3ccccc3c2=O)cc1 [Example 25, 2-Methyl-2-{4-[3-(2-methyl-4-oxo-4H-quinazolin-3-yl)-propoxy]-phenylsulfanyl}-propionic acid ethyl ester] | 162 to 164 °C
21 | Cc1nc2ccccc2c(=O)n1CCCOc1ccc(SC(C)(C)C(=O)O)cc1 [Example 26, 2-Methyl-2-{4-[3-(2-methyl-4-oxo-4H-quinazolin-3-yl)-propoxy]-phenylsulfanyl}-propionic acid] | 144 to 146 °C
22 | CCCc1nn(CC)c2c(=O)n(CCCOc3ccc(SC(C)(C)C(=O)O)cc3)c(C)nc12 [Example 28, 2-{4-[3-(1-Ethyl-5-methyl-7-oxo-3-propyl-1,7-dihydro-pyrazolo[4,3-d]pyrimidin-6-yl)-propoxy]-phenylsulfanyl}-2-methyl-propionic acid] | 118 to 120 °C
23 | CCCc1nn(CC)c2c(=O)n(CCCOc3ccc(SC(C)(C)C(=O)O)cc3)c(CC)nc12 [Example 30, 2-{4-[3-(1,5-Diethyl-7-oxo-3-propyl-1,7-dihydro-pyrazolo[4,3-d]pyrimidin-6-yl)-propoxy]-phenylsulfanyl}-2-methyl-propionic acid] | 96 to 98 °C
24 | CCCc1nn(C)c2c(=O)n(CCOc3ccc(SC(C)(C)C(=O)OCC)cc3)c(C)nc12 [Example 31, 2-{4-[2-(1,5-Dimethyl-7-oxo-3-propyl-1,7-dihydro-pyrazolo[4,3-d]pyrimidin-6-yl)-ethoxy]-phenylsulfanyl}-2-methyl-propionic acid ethyl ester] | 106 to 108 °C
